Laboratory results reported in paper PMC11489226 (Archives of Toxicology, 2024).

Target: T1, CYP2C8 (Homo sapiens, UniProt P10632)
T1 construct: V5-His (vector-encoded) (C); expressed in transfected cells
T1 sequence (P10632 1-490): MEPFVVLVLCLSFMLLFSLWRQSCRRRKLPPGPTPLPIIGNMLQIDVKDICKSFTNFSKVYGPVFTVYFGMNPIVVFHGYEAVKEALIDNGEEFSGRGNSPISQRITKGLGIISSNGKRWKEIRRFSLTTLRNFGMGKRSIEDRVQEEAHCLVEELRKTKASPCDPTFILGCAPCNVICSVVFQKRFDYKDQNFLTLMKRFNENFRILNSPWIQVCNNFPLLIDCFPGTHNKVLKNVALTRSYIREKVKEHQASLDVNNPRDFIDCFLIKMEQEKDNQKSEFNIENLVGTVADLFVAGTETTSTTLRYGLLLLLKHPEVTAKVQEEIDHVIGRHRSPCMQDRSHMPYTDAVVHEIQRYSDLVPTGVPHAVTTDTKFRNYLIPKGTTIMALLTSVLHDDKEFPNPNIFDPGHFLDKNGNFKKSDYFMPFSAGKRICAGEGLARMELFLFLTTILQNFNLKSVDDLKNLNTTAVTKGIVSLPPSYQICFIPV
Test: Metabolism in transgenic HEK293 cells expressing CYP2C8
Format: in vitro ADME
Conditions: 20 µM parent PCB, 24 h, supernatant
Experimental: For the generation of transgenic cell lines, we used semi-adherent HEK293 cells (DSMZ, ACC305, human embryonic kidney cells) which were cultured on a daily basis in DMEM medium supplemented with 10% (FCS) and 1% penicillin/streptomycin. In a first step CYP1A2, CYP2C8, CYP2C9, CYP3A4, CYP2A6, and CYP2E1 cDNA were cloned into the plasmid pcDNATM3.1/V5-His TOPO® using human liver RNA as a template and using the following primers: CYP1A2 for5′-[…]-3′, CYP1A2 rev 5′-[…]-3′; CYP2C8 for 5′-[…]-3′, CYP2C8 rev 5′-[…]-3′; CYP2C9 for 5′-[…]-3′, CYP2C9 rev 5′-[…]-3′; CYP3A4 for 5′-[…]-3′, CYP3A4 rev 5′-[…]-3′, CYP2A6 for 5′-[…]-3′, CYP2A6 rev 5′-[…]-3′; CYP2E1 for 5′-[…]-3′, CYP2E1 rev 5′-[…]-3′. Final constructs were verified with Sanger DNA sequencing and restriction digestion. For transfection, 3 × 10^6 HEK293 cells were pre-incubated in a 10 cm dish in DMEM medium with 10% FCS, but without antibiotics, for 18 to 24 h. When the cells reached approximately 70% confluency, they were transfected using TransIT-LT1 transfection reagent (Biozol, Eiching, Germany). The TransIT-LT1 reagent was warmed to room temperature and vortexed. 1.63 mL Opti-MEM, 16.25 µL plasmid DNA (1 µg/µL), and 48.75 µL TransIT-LT1 reagent were mixed and incubated for 15 to 30 min. The mixture was then added dropwise to the medium of the cells, and the cells were incubated again at 37 °C and 5% CO2. After 24 h, the medium was replaced with standard medium and geneticin was added for selection (1 mg/mL). Cells were selected for 6–8 weeks in bulk culture, and single cell clones were obtained subsequently by limiting dilution. Each clone was checked for insertion by PCR using genomic DNA as a template.
Parallel samples were run without the addition of PCBs. At a confluence of 80%, PCBs (20 μM each, dissolved in ethanol) were added and cells were incubated for 24 h before harvest of supernatants. Supernatants were diluted 1:2 with 80 μL acetate buffer 0.1 M (pH = 5.3). 100 μL of this dilution were further incubated with 100 μL of ammonium acetate buffer 0.1 M (pH = 5.3) and 5 μL of β-Glucuronidase/Arylsulfatase enzyme overnight in a drying oven at 37 °C for enzymatic hydrolysis to release conjugated compounds. 50 μL of a mix of internal standards (10 ng/mL) and 600 μL of methanol were added to the samples, then mixed by vortexing for 1 min and centrifuged for 10 min at 3400g. The individual supernatants were transferred to glass LC vials and evaporated to approximately 50 μL at 45 °C under a gentle stream of nitrogen. Finally, 0.1 mol/ L ammonium acetate buffer was added to a final volume of 100 μL and then transferred to an insert for analysis. […]

Measured: Quantification of metabolites generated from PCB28, 52, and 101

Oc1cc(-c2ccc(Cl)cc2)c(Cl)cc1Cl [5-OHCB28, 2,4,4′-trichloro-5-biphenylol]
<LOQ: CYP2C8 Clone A3 | CYP2C8 Clone D8 | CYP2C8 Clone D9

Oc1cc(Cl)c(-c2ccc(Cl)cc2)cc1Cl [4-OHCB31, 2,4′,5-trichloro-4-biphenylol]
<LOQ: CYP2C8 Clone A3 | CYP2C8 Clone D8 | CYP2C8 Clone D9
